The results in this text go back to paper PMC3139667, “A Screen against Leishmania Intracellular Amastigotes: Comparison to a Promastigote Screen and Identification of a Host Cell-Specific Hit” (PLoS Neglected Tropical Diseases, 2011).

The test system of one experiment is THP-1. Nature of the experiment: Host cell toxicity: THP-1 host nuclei counts in the image-based assay. The following applies: for GI50: read-out: GI50 THP-1; for Selectivity: ratio between parasite GI50 and THP-1 GI50. The protocol: (§1) Sterile, black, 96-well, clear bottom plates (Greiner Bio-One) were seeded with exponentially growing THP-1 (5×10^5cells/ml). THP-1 were treated with 0.1 µM phorbol myristate acetate (PMA, Sigma) at 37°C for 48 h to achieve differentiation into adherent, non-dividing macrophages. Maturation of THP-1 cells towards monocyte-macrophage like cells is essential to avoid parasitized cells being overgrown by replicating cells. After activation by PMA, cells were washed and incubated with complete RPMI medium containing stationary phase L. donovani promastigotes at a macrophage/promastigote ratio of 1/15. After 4 h incubation at 37°C, non-internalized promastigotes were removed by 2–3 successive washes with RPMI containing 5% FBS and 5% horse serum. Test compounds (10 µM), positive control (2 µM amphotericin B) or negative control (1% DMSO) were then added to the cultures using a Biomek FXp liquid handler (Beckman Coulter). Cultures were incubated at 37°C for 72 h. Cells were then washed with phosphate-buffered saline (PBS), fixed for 30 minutes with 4% formaldehyde, rinsed again with PBS, stained for 2 h with 4′,6′-diamidino-2-phenylindole (DAPI 300 nM) and finally washed with PBS. […] Images were acquired with an INCell Analyzer 1000 automated epi-fluorescent microscope (G.E. Healthcare). The excitation and emission filters used to detect DAPI were 350/50 nm and 460/40 nm respectively. Eight image fields were acquired per well with a 20X objective. The proprietary INCell Developer Toolbox 1.7 software was used for image analysis. Segmentation parameters were set to identify host nuclei with a minimum area of 250 µm^2 and parasite kinetoplast with an average area of 1 µm^2. The intensity of parasite nucleus was too low to be detected with a 20X objective. A border, representing the boundary of the cell, was drawn around the nucleus (total area between 700 and 2000 µm^2). Only parasites found within this area were included in the calculation to eliminate extracellular parasites. False positive parasite detection in the nucleus was also excluded from the calculation. Host cell nuclei and parasite kinetoplasts were counted and the ratio of parasites DNA to host nuclei was selected as the measurement output. Percentage inhibition of parasite growth was calculated as [1-(P/hcx-P/hc^+)/(P/hc^−-P/hc^+)]*100 where P/hcx, P/hc^+ and P/hc^− are parasite per host cell ratio for every well, positive control (amphotericin B) and negative control (DMSO) respectively. Calculation of Z' factor and GI50 curve fitting were carried out as described above.

Experiment [1] concerns L. donovani promastigotes. Nature of the experiment: Promastigote high-throughput ATP-bioluminescence assay. The following applies: 72 h at 27°C, CellTiter-Glo, read-out: GI50 Promastigote. The format is cell-based, Leishmania donovani. On the procedure: L. donovani promastigotes from an exponentially growing culture were diluted to 10^6/ml in RPMI containing 10% FBS and 10% BHT. The diluted culture (99 µl/well) was dispensed in sterile 96-well flat white opaque assay plates (Greiner Bio-One) using a WellMate multichannel dispenser (Matrix). 1 µl of 1 mM test compound dissolved in DMSO was added to the plates for a final concentration of 10 µM compound and 1% DMSO. Amphotericin B was added as a positive control (final concentration 2 µM, 1% DMSO) and as a negative control, 1 µl DMSO was added (1% final concentration). Compounds and controls were added to the assay plate with the robotic dispenser Biomek FXp liquid handler (Beckman Coulter). Promastigotes were incubated with the compounds for 72 h at 27°C. The parasites were then lysed by adding 50 µl of CellTiter-Glo (Promega) and placed on an orbital shaker for 5 min at room temperature. After lysis, the resulting ATP-bioluminescence was measured using the Analyst HT plate reader (Molecular Devices). Percentage inhibition of parasite growth was calculated for each well as [1-(RLUx-RLU^+)/(RLU^--RLU^+)]*100 where RLUx, RLU^+ and RLU^- are respectively the Relative Light Units for each well, positive (amphotericin B) and negative (DMSO) controls. A screening window coefficient, denoted Z' factor, was used to evaluate the performance of the assay. The Z' factor, calculated as 1-(3σc++3σc−)/(µc+−µc−) where σc+, σc−, µc+ and µc− are respectively the standard deviation and mean values of positive and negative controls, is reflective of the assay signal dynamic range and the data variation associated with signal measurement. […] GI50 curve fitting was carried out using GraphPad Prism 4 Software (GraphPad Software Inc., San Diego, CA).
(In general: Cellular ATP, detected with luciferase, serves as a proxy for viable cell number.)

Experiment [2] concerns L. donovani axenic amastigotes. Nature of the experiment: Dose response study against axenic amastigotes (CellTiter-Glo). The format is cell-based, Leishmania donovani. The conditions noted are these: 72 h at 37°C, CellTiter-Glo, read-out: GI50 Axenic amastigote. The protocol: L. donovani axenic amastigotes (5×10^5 cells/ml in axenic amastigote media) were dispensed in sterile 96-well flat white opaque assay plates (Greiner Bio-One) using a WellMate multichannel dispenser (Matrix). […] 1% DMSO and amphotericin B (2 µM, 1% DMSO final concentration) were added as negative and positive controls respectively. Axenic amastigotes were incubated with the compounds for 72 h at 37°C with 5% CO2. Parasite viability was then measured using CellTiter-Glo as described above.

Experiment [3] relates to L. donovani intracellular amastigotes. Nature of the experiment: Intracellular amastigote high-throughput image-based assay in infected THP-1 macrophages. The format is cell-based, Leishmania donovani. The following applies: for GI50: L. donovani in THP-1, 72 h, parasites per host cell, read-out: GI50 Intracellular amastigote. On the procedure:
as §1

The mark [4] stands for this setting: PMA-differentiated infected THP-1, 72 h, host nuclei count.
[5] abbreviates: ratio between promastigote GI50 and intracellular amastigote GI50, >2 more active against intracellular amastigote, <0.4 more active against promastigotes.
The mark [6] stands for this setting: Leishmania donovani, THP-1, 72 h.

Counter-ions that a name gives are not always drawn. Like-named read-outs stand apart in the source and are kept apart here. Some results are limits rather than exact numbers.

Regarding `O=C(Nc1ccc(Cl)c(Cl)c1)c1cc(Cl)cc(Cl)c1O` [3,3′,4′,5-tetrachlorosalicylanilide], the GI50 with THP-1 (Homo sapiens, THP-1, 72 h) worked out at 0.32 µM; in experiment [1] (Leishmania donovani), 1.45 µM; in experiment [2] (Leishmania donovani), 1.38 µM. In the experiment on THP-1, the Selectivity stood at 0.22.
With `CCC(c1ccc(OCCN(CC)CC)cc1)C(CC)c1ccc(OCCN(CC)CC)cc1` (stereo not drawn) [4,4′-Diethylaminoethoxyhexestrol], the Selectivity in the experiment on THP-1 is 4.36. Besides, the GI50 with THP-1 (setting [4]) amounted to 6.11 µM; in experiment [1] it was 5 µM; in experiment [2], 10.9 µM; in experiment [3], 1.4 µM. The Specificity in experiment [3] (setting [5]) came to 3.57.
As to `CC[C@@]1(O)C[C@H](O[C@H]2C[C@H](N(C)C)[C@H](O[C@H]3C[C@H](O)[C@H](O[C@H]4CCC(=O)[C@H](C)O4)[C@H](C)O3)[C@H](C)O2)c2c(cc3c(c2O)C(=O)c2c(O)cccc2C3=O)[C@H]1C(=O)OC` [Aclacynomycine a1], in the experiment on THP-1, the Selectivity is 5. Also, the 50% growth inhibitory concentration (GI50) in the experiment with THP-1 (setting [4]) was 29.1 µM; in experiment [1], 9.15 µM; in experiment [2], > 16.5 µM; in experiment [3] it was 5.81 µM. For the same compound, in experiment [3] (setting [5]), the Specificity came to 1.57.
As for `Nc1c2ccccc2nc2ccccc12` [Aminacrine], the GI50 in the experiment on THP-1 (Homo sapiens, THP-1, 72 h) is 13 µM; in experiment [1] (Leishmania donovani), 8.96 µM; in experiment [2] (Leishmania donovani) it was > 16.5 µM; in experiment [3] (setting [6]) it was 1.9 µM. In the experiment with THP-1, the Selectivity is 6.82. In addition, the Specificity in experiment [3] (setting [5]) was determined as 4.71.
`CCOC(=O)C1=C(COCCN)NC(C)=C(C(=O)OC)C1c1ccccc1Cl` (stereo not drawn) [Amlodipine]: the concentration for 50% growth inhibition (GI50) is > 16.5 µM in the experiment with THP-1 (Homo sapiens, THP-1, 72 h); 3.11 µM in experiment [1] (Leishmania donovani); 27 µM in experiment [2] (Leishmania donovani); 9.78 µM in experiment [3] (setting [6]). Besides, the Specificity in experiment [3] (setting [5]) worked out at 0.31.
With `C[C@@H]1[C@H](O)[C@@H](C)/C=C/C=C/C=C/C=C/C=C/C=C/C=C/[C@H](O[C@@H]2O[C@H](C)[C@@H](O)[C@H](N)[C@@H]2O)C[C@@H]2O[C@](O)(C[C@@H](O)C[C@@H](O)[C@H](O)CC[C@@H](O)C[C@@H](O)CC(=O)O[C@H]1C)C[C@H](O)[C@H]2C(=O)O` [Amphotericin B], the GI50 was > 50 µM in the experiment on THP-1 (Homo sapiens, THP-1, 72 h); 1.61 µM in experiment [1] (Leishmania donovani); 5.42 µM in experiment [2] (Leishmania donovani); 1.12 µM in experiment [3]. Besides, in the experiment on THP-1, the Selectivity was 44.52. Also, the “Effect on growth of intracellular L. donovani” value in experiment [3] (2 µM, 72 h) was “significantly inhibited growth”. In addition, in experiment [3] (10 µM, duplicates, hit = 60% parasite growth inhibition and not more than 20% reduction in THP-1 numbers), the “Primary screen against intracellular amastigotes, hit selection” value is reported as “active”. For the same compound, the Specificity in experiment [3] (setting [5]) was 1.43.
Take `CCCCCC[C@H]1C(=O)O[C@H](C)[C@H](NC(=O)c2cccc(NC=O)c2O)C(=O)O[C@@H](C)[C@@H]1OC(=O)CC(C)C` [Antimycin A]: the 50% growth inhibitory concentration (GI50) with THP-1 (Homo sapiens, THP-1, 72 h) was > 50 µM; in experiment [1] (Leishmania donovani), 0.1 µM; in experiment [2] (Leishmania donovani), 0.01 µM; in experiment [3] (setting [6]) it was 2.15 µM. Also, the Selectivity in the experiment on THP-1 is on record as 500. Also, in experiment [3] (setting [5]), the Specificity amounted to 0.05.
For the compound `CC(=O)OC[C@H]1O[C@@H]([S-])[C@H](OC(C)=O)[C@@H](OC(C)=O)[C@@H]1OC(C)=O.CCP(CC)CC.[Au+]` [Auranofin], the Selectivity with THP-1 was 1.88. For the same compound, the GI50 in the experiment on THP-1 (setting [4]) is 20.9 µM; in experiment [1], 11.1 µM; in experiment [2], > 50 µM; in experiment [3] it was 21.8 µM. Moreover, the Specificity in experiment [3] (setting [5]) worked out at 0.51.
Consider `Cc1c(-c2ccc(O)cc2)n(Cc2ccc(OCCN3CCCCCC3)cc2)c2ccc(O)cc12` [Bazedoxifene], for which the GI50 in experiment [1] (Leishmania donovani) was 6.52 µM; in experiment [2] (Leishmania donovani), > 16.5 µM.
Take `CC(C)(C)CC(C)(C)c1ccc(OCCOCC[N+](C)(C)Cc2ccccc2)cc1.[Cl-]` [Benzetonium chloride]: the values for the GI50 in experiment [1], in experiment [2] and in experiment [3] were 11.3 µM, 10.7 µM and 10 µM, respectively. Besides, the Specificity in experiment [3] (setting [5]) was 1.13.
Regarding `CCCCCCCCCCCCCCCC[n+]1ccccc1` [Cetylpyridinium chloride], the Specificity in experiment [3] stood at 8.05.
As for `C[C@@H]1CC[C@@]2(OC1)O[C@H]1[C@@H](O)[C@H]3[C@@H]4CC[C@H]5C[C@@H](O[C@@H]6O[C@H](CO)[C@H](O[C@@H]7O[C@H](CO)[C@@H](O)[C@H](O[C@@H]8OC[C@@H](O)[C@H](O)[C@H]8O)[C@H]7O[C@@H]7O[C@H](CO)[C@H](O)[C@H](O[C@@H]8O[C@H](CO)[C@@H](O)[C@H](O)[C@H]8O)[C@H]7O)[C@H](O)[C@H]6O)[C@H](O)C[C@]5(C)[C@H]4CC[C@]3(C)[C@H]1[C@@H]2C` [Digitonin], the GI50 in the experiment with THP-1 (Homo sapiens, THP-1, 72 h) stood at 13.5 µM; in experiment [1] (Leishmania donovani), 4.38 µM; in experiment [2] (Leishmania donovani), 13.8 µM. Further, the Selectivity in the experiment with THP-1 is 3.075.
Taken in the same sequence, the figures for `CC(=O)[C@]1(O)Cc2c(O)c3c(c(O)c2[C@@H](O[C@H]2C[C@H](N)[C@H](O)[C@H](C)O2)C1)C(=O)c1ccccc1C3=O` [Idarubicin] were 1.89 µM, 4.65 µM, 1.78 µM and 0.40.
`CN(C)C(=O)C(CCN1CCC(O)(c2ccc(Cl)cc2)CC1)(c1ccccc1)c1ccccc1` [Loperamide Hydrochloride]: the GI50 is 17.3 µM in experiment [1] (Leishmania donovani) and > 50 µM in experiment [2] (Leishmania donovani).
For the compound `Clc1ccc(CO/N=C(\Cn2ccnc2)c2ccc(Cl)cc2Cl)c(Cl)c1` [Oxiconazole], the Specificity in experiment [3] (setting [5]) was 0.40.
On to `COc1c(Cl)cc2c(c1OC)N(C)[C@@H]1N3C(=O)[C@@]4(C)SS[C@@]3(C(=O)N4C)[C@H](O)[C@]21O` [Sporidesmin A], for which the Selectivity in the experiment on THP-1 was 0.02. Besides, the GI50 amounted to 0.02 µM with THP-1 (setting [4]), 1.18 µM in experiment [1] and 1.66 µM in experiment [2].
On to `CC(C)(C)c1ccc(C(O)CCCN2CCC(C(O)(c3ccccc3)c3ccccc3)CC2)cc1` (stereo not drawn) [Terfenadine], for which the GI50 came to 11.9 µM in experiment [1] (Leishmania donovani) and 0.61 µM in experiment [2] (Leishmania donovani).
`C[CH2][Hg][S]c1ccccc1C(=O)[O-].[Na+]` [Thimerosal]: in the experiment on THP-1, the Selectivity was 26.18. Besides, the figures for the GI50 (in the experiment on THP-1 (setting [4]); in experiment [1]; in experiment [2]) were 12.8 µM, 0.49 µM and 1.5 µM, respectively.
For `CCCCN(CCCC)C(=S)[S-].CCCCN(CCCC)C(=S)[S-].[Zn+2]` [Zinc Dibutyldithiocarbamate], in the experiment on THP-1, the Selectivity worked out at 5.89. The same compound yielded a Specificity in experiment [3] of 0.17.
Consider Gramicidin, for which the Selectivity in the experiment on THP-1 worked out at 12.19. In addition, the GI50 in the experiment with THP-1 (setting [4]) is 8.38 µM; in experiment [1], 0.68 µM; in experiment [2], 5.76 µM.

What is called GI50 is the concentration that inhibits growth by half.
